Assay results as given in patent publication US10363239B2, “Method for inhibiting growth of cancer cells” (Pain Therapeutics, Inc., priority 2013, dated 2019).
Read-outs that look alike come from different tables or passages of the source.

Assays:
[1] = molecular target: FLNA pentapeptide of SEQ ID NO: 1 (Bn-VAKGL) (Homo sapiens, UniProt P21333); test: FITC-NLX-based FLNA screening assay (inhibition of FITC-naloxone binding to Bn-VAKGL on streptavidin plates); conditions: 10 nM FITC-NLX
mu opiate receptor (MOR) = test: MOR agonist activity using [35S]GTPγS binding assay in striatal membranes; assay type: biochemical; conditions: for % DAMGO (0.1 μM) / % DAMGO (1 μM): relative to DAMGO; for % DAMGO + BFNA: 1 μM compound + β-FNA, relative to DAMGO + BFNA
Method in brief: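 Striatal membranes (200 μg) were preincubated 5 min at 30 °C in HEPES pH 7.5 with 100 mM NaCl, 1 mM MgCl2 and 0.5 nM [35S]GTPγS, then 5 min more with 0.1–10 μM compound. Gαo was immunoprecipitated and bound radioactivity counted by scintillation.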

[2] = read-out: Percent Binding Inhibition, FLNA-binding compound 0.01 μM
[3] = read-out: Percent Binding Inhibition, FLNA-binding compound 0.1 μM
[4] = read-out: Percent Binding Inhibition, FLNA-binding compound 1 μM
[5] = Series B, 0.1 μM compound, [35S]GTPγS binding to Gαo, striatal membranes
[6] = Series B, 1 μM compound + 1 μM β-FNA
[7] = Series B, 1 μM compound, [35S]GTPγS binding to Gαo, striatal membranes
[8] = FLNA-binding compound 0.01 μM, read-out: Percent Binding Inhibition
[9] = FLNA-binding compound 0.1 μM, read-out: Percent Binding Inhibition
[10] = FLNA-binding compound 1 μM, read-out: Percent Binding Inhibition
[11] = Series C-2, 0.1 μM compound, [35S]GTPγS binding to Gαo, striatal membranes
[12] = Series C-2, 1 μM compound + 1 μM β-FNA
[13] = Series C-2, 1 μM compound, [35S]GTPγS binding to Gαo, striatal membranes
[14] = Series C-1, 0.1 μM compound, [35S]GTPγS binding to Gαo, striatal membranes
[15] = Series C-1, 1 μM compound + 1 μM β-FNA
[16] = Series C-1, 1 μM compound, [35S]GTPγS binding to Gαo, striatal membranes

Structure (SMILES)	inhibition at 0.01 µM [1, 2] [%]	inhibition at 0.1 µM [1, 3] [%]	inhibition at 1 µM [1, 4] [%]	% DAMGO (0.1 μM) (mu opiate receptor (MOR); Series B, 0.1 μM compound) [%]	MOR agonist activity, percent [35S]GTPγS binding at the stated compound concentration (mu opiate receptor (MOR); [5]) [%]	MOR agonist activity, percent [35S]GTPγS binding at the stated compound concentration (mu opiate receptor (MOR); [6]) [%]	% DAMGO + BFNA (mu opiate receptor (MOR); Series B) [%]	% DAMGO (1 μM) (mu opiate receptor (MOR); Series B, 1 μM compound) [%]	MOR agonist activity, percent [35S]GTPγS binding at the stated compound concentration (mu opiate receptor (MOR); [7]) [%]	inhibition at 0.01 µM [1, 8] [%]	inhibition at 0.1 µM [1, 9] [%]	inhibition at 1 µM [1, 10] [%]	% DAMGO (0.1 μM) (mu opiate receptor (MOR); Series C-2, 0.1 μM compound) [%]	MOR agonist activity, percent [35S]GTPγS binding at the stated compound concentration (mu opiate receptor (MOR); [11]) [%]	MOR agonist activity, percent [35S]GTPγS binding at the stated compound concentration (mu opiate receptor (MOR); [12]) [%]	% DAMGO + BFNA (mu opiate receptor (MOR); Series C-2) [%]	% DAMGO (1 μM) (mu opiate receptor (MOR); Series C-2, 1 μM compound) [%]	MOR agonist activity, percent [35S]GTPγS binding at the stated compound concentration (mu opiate receptor (MOR); [13]) [%]	also measured
COc1ccc(C(=O)CC2c3c(cc4c(c3OC)OCO4)CC[N+]2(C)C)cc1OC (stereo not drawn) [Compound B0026]	41.1	43.3	48.2	88.8	152.0	28.8	55.3	87.4	233.3	–	–	–	–	–	–	–	–	–	–
CC(=O)c1ccc(S(=O)(=O)N2CCC3(CC2)OCCN3S(C)(=O)=O)cc1 [Compound C0056]	–	–	–	–	–	–	–	–	–	33.7	38.9	41.4	68.0	98.6	86.3	196.1	83.0	193.4	–
CC(=O)c1ccc(S(=O)(=O)N2CCC3(CC2)NC(=O)CO3)cc1 [Compound C0087M]	–	–	–	–	–	–	–	–	–	51.6	57.9	61.5	138.9	262.8	142.5	293.8	132.8	329.6	–
C=CCN1CCC2(CC1)OCCN2S(=O)(=O)c1ccc(C(C)=O)cc1 [Compound C0096M]	–	–	–	–	–	–	–	–	–	43	48.3	55	105.9	186.4	127.1	577.7	130.0	328.9	–
COc1c2c(cc3c1C(CC(=O)/C=C/c1ccc(Cl)cc1)[N+](C)(C)CC3)OCO2 (stereo not drawn) [Compound B0019]	34.3	41	49	59.7	101.0	81.4	123.3	96.0	256.5	–	–	–	–	–	–	–	–	–	–
O=S(=O)(c1csc2ccccc12)N1CCC2(CC1)OCCN2S(=O)(=O)c1csc2ccccc12 [Compound C0150M]	47.3	51.8	61.4	–	–	–	–	–	–	–	–	–	–	–	–	–	–	–	% DAMGO (0.1 μM) (mu opiate receptor (MOR); Series C-1, 0.1 μM compound): 97.2%; Concentration of FLNA-Binding Compound as Agonist 0.1 μM (mu opiate receptor (MOR); [14]): 167.1%; Concentration of FLNA-Binding Compound as Agonist 1 μM + BFNA (mu opiate receptor (MOR); [15]): 93.4%; % DAMGO + BFNA (mu opiate receptor (MOR); Series C-1): 173.2%; % DAMGO (1 μM) (mu opiate receptor (MOR); Series C-1, 1 μM compound): 129.8%; Concentration of FLNA-Binding Compound as Agonist 1 μM (mu opiate receptor (MOR); [16]): 423.1%
O=S(=O)(c1ccc(Oc2ccccc2)cc1)N1CCC2(CC1)OCCN2S(=O)(=O)c1ccc(Oc2ccccc2)cc1 [Compound C0149M]	48.5	52.3	62	–	–	–	–	–	–	–	–	–	–	–	–	–	–	–	% DAMGO (0.1 μM) (mu opiate receptor (MOR); Series C-1, 0.1 μM compound): 122.0%; Concentration of FLNA-Binding Compound as Agonist 0.1 μM (mu opiate receptor (MOR); [14]): 209.8%; Concentration of FLNA-Binding Compound as Agonist 1 μM + BFNA (mu opiate receptor (MOR); [15]): 93.4%; % DAMGO + BFNA (mu opiate receptor (MOR); Series C-1): 102.3%; % DAMGO (1 μM) (mu opiate receptor (MOR); Series C-1, 1 μM compound): 124.8%; Concentration of FLNA-Binding Compound as Agonist 1 μM (mu opiate receptor (MOR); [16]): 406.7%
COc1ccc(C(=O)CC2c3c(cc4c(c3OC)OCO4)CC[N+]2(C)C)cc1C (stereo not drawn) [Compound B0021]	32.5	43.1	47.6	75.9	126.9	42.9	123.6	104.7	256.4	–	–	–	–	–	–	–	–	–	–
CC(=O)c1ccc(S(=O)(=O)N2CC(CN(C)C)OC23CCN(CC2CC2)CC3)cc1 (stereo not drawn) [Compound C0128M]	–	–	–	–	–	–	–	–	–	46.5	54.4	58.2	104.5	197.8	63.9	131.8	115.2	286.0	–
